Columns and labels:
[1] = Displacement of [3H]EK from Opioid receptor delta 1 in guinea pig brain membrane
[2] = Compound was tested for binding affinity against delta opioid receptor in guinea pig brain membrane using [3H]EK as the radioligand

Compound	Ki [1]	Ki [2]
O=C(CCC(=O)N[C@@H]1CC[C@@]2(O)[C@H]3Cc4ccc(O)c5c4[C@@]2(CCN3CC2CC2)[C@H]1O5)N[C@@H]1CC[C@@]2(O)[C@H]3Cc4ccc(O)c5c4[C@@]2(CCN3CC2CC2)[C@H]1O5 [1N,4N-di[4-cyclopropylmethyl-10,17-dihydroxy-(13R,14R,17S)-12-oxa-4-azapentacyclo[9.6.1.01,13.05,17.07,18]octadeca-7(18),8,10-trien-14-yl]succinamide]	0.012 µM	
O=C(CCC(=O)NCC(=O)N[C@@H]1CC[C@@]2(O)[C@H]3Cc4ccc(O)c5c4[C@@]2(CCN3CC2CC2)[C@H]1O5)NCC(=O)N[C@@H]1CC[C@@]2(O)[C@H]3Cc4ccc(O)c5c4[C@@]2(CCN3CC2CC2)[C@H]1O5 [1N,4N-di[4-cyclopropylmethyl-10,17-dihydroxy-(13R,14R,17S)-12-oxa-4-azapentacyclo[9.6.1.01,13.05,17.07,18]octadeca-7(18),8,10-trien-14-ylcarbamoylmethyl]succinamide]	0.0078 µM	
O=C(CCC(=O)NCC(=O)NCC(=O)N[C@@H]1CC[C@@]2(O)[C@H]3Cc4ccc(O)c5c4[C@@]2(CCN3CC2CC2)[C@H]1O5)NCC(=O)NCC(=O)N[C@@H]1CC[C@@]2(O)[C@H]3Cc4ccc(O)c5c4[C@@]2(CCN3CC2CC2)[C@H]1O5 [1N,4N-di[4-cyclopropylmethyl-10,17-dihydroxy-(13R,14R,17S)-12-oxa-4-azapentacyclo[9.6.1.01,13.05,17.07,18]octadeca-7(18),8,10-trien-14-ylcarbamoylmethylcarbamoylmethyl]succinamide]	0.0049 µM	
O=C(CCC(=O)NCC(=O)NCC(=O)NCC(=O)N[C@@H]1CC[C@@]2(O)[C@H]3Cc4ccc(O)c5c4[C@@]2(CCN3CC2CC2)[C@H]1O5)NCC(=O)NCC(=O)NCC(=O)N[C@@H]1CC[C@@]2(O)[C@H]3Cc4ccc(O)c5c4[C@@]2(CCN3CC2CC2)[C@H]1O5 [1N,4N-di[4-cyclopropylmethyl-10,17-dihydroxy-(13R,14R,17S)-12-oxa-4-azapentacyclo[9.6.1.01,13.05,17.07,18]octadeca-7(18),8,10-trien-14-ylcarbamoylmethylcarbamoylmethylcarbamoylmethyl]succinamide]	0.0064 µM	
CN1CC[C@]23c4c5ccc(O)c4O[C@@H]2[C@H](NC(=O)CCC(=O)N[C@@H]2CC[C@]4(O)[C@H]6Cc7ccc(O)c8c7[C@@]4(CCN6C)[C@@H]2O8)CC[C@]3(O)[C@H]1C5 [1N,4N-di[10,17-dihydroxy-4-methyl-(13R,14S,17S)-12-oxa-4-azapentacyclo[9.6.1.01,13.05,17.07,18]octadeca-7(18),8,10-trien-14-yl]succinamide]	0.2 µM	
CN1CC[C@]23c4c5ccc(O)c4O[C@@H]2[C@H](NC(=O)CNC(=O)CCC(=O)NCC(=O)N[C@@H]2CC[C@]4(O)[C@H]6Cc7ccc(O)c8c7[C@@]4(CCN6C)[C@@H]2O8)CC[C@]3(O)[C@H]1C5 [1N,4N-di[10,17-dihydroxy-4-methyl-(13R,14S,17S)-12-oxa-4-azapentacyclo[9.6.1.01,13.05,17.07,18]octadeca-7(18),8,10-trien-14-ylcarbamoylmethyl]succinamide]	0.086 µM	
CN1CC[C@]23c4c5ccc(O)c4O[C@@H]2[C@H](NC(=O)CNC(=O)CNC(=O)CNC(=O)CCC(=O)NCC(=O)NCC(=O)NCC(=O)N[C@@H]2CC[C@]4(O)[C@H]6Cc7ccc(O)c8c7[C@@]4(CCN6C)[C@@H]2O8)CC[C@]3(O)[C@H]1C5 [1N,4N-di[10,17-dihydroxy-4-methyl-(13R,14S,17S)-12-oxa-4-azapentacyclo[9.6.1.01,13.05,17.07,18]octadeca-7(18),8,10-trien-14-ylcarbamoylmethylcarbamoylmethyl]succinamide]	0.042 µM	
CN1CC[C@]23c4c5ccc(O)c4O[C@H]2[C@@H](NC(=O)CNC(=O)CNC(=O)CCC(=O)NCC(=O)NCC(=O)N[C@H]2CC[C@@]4(O)[C@H]6Cc7ccc(O)c8c7[C@@]4(CCN6C)[C@H]2O8)CC[C@@]3(O)[C@H]1C5 [1N,4N-di[10,17-dihydroxy-4-methyl-(13R,14S,17S)-12-oxa-4-azapentacyclo[9.6.1.01,13.05,17.07,18]octadeca-7(18),8,10-trien-14-ylcarbamoylmethylcarbamoylmethylcarbamoylmethyl]succinamide]	0.05 µM	
CN1CC[C@]23c4c5ccc(O)c4O[C@@H]2[C@H](NC(=O)CNC(=O)CNC(=O)CCC(=O)NCC(=O)NCC(=O)N[C@@H]2CC[C@]4(O)[C@H]6Cc7ccc(O)c8c7[C@@]4(CCN6C)[C@@H]2O8)CC[C@]3(O)[C@H]1C5 [1N,4N-di[10,17-dihydroxy-4-methyl-(13S,14R,17R)-12-oxa-4-azapentacyclo[9.6.1.01,13.05,17.07,18]octadeca-7(18),8,10-trien-14-ylcarbamoylmethylcarbamoylmethyl]succinamide]		0.027 µM
